US11945822B2, “Pyrazolo-triazine and/or pyrazolo-pxrimidine derivatives as selective inhibitor of cyclin dependent kinase” (QURIENT CO., LTD., priority 2018, dated 2024)
Read-outs that look alike come from different tables or passages of the source.

Legend:
[1] = tested on: MV4-11; test: Cellular MV4-11 viability assay (CellTiter-Glo, 72 hours); format: cell-based; conditions: Homo sapiens
How it was run: (§1)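 Mycoplasma-tested cells, seeded at densities chosen for each line, received compound or DMSO vehicle (under 0.1% final) for 72 hours. Duplicate cultures were then read for viability by CellTiter-Glo luminescence.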

[2] = tested on: HCT116; test: Cellular HCT116 viability assay (CellTiter-Glo, 72 hours); format: cell-based; conditions: Homo sapiens, HCT-116
How it was run: as §1

[3] = tested on: MM.1S; test: Cellular MM.1S viability assay (CellTiter-Glo, 72 hours); format: cell-based; conditions: Homo sapiens, MM1.S
How it was run: (§2)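 Compound exposure lasted 72 h at 37° C, 5% CO2, over 0.0015–10 uM, DMSO kept under 0.1%, with dosing 24 h after seeding. Seeding: A2780 1×10^3, OVCAR-3 5×10^3, MM.1S 1×10^4 cells/well in 10% FBS RPMI-1640. Duplicate CellTiter-Glo luminescence readout.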

[4] = molecular target: T1, CDK1/Cyclin B (Homo sapiens, UniProt P06493); test: Enzymatic assay for CDK1 (FRET based LANCE Ultra kinase assay); format: biochemical
T1 construct: purchased Invitrogen PR4768C
T1 sequence (P06493 whole entry): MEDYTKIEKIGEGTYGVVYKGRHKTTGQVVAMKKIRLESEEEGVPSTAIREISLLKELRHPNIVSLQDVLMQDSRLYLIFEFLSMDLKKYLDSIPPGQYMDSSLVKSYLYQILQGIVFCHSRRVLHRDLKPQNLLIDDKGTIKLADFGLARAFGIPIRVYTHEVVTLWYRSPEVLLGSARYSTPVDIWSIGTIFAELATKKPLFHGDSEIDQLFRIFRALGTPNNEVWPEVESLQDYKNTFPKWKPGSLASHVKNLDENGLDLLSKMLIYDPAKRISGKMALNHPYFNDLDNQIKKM
T1 sequence (P14635 whole entry partner): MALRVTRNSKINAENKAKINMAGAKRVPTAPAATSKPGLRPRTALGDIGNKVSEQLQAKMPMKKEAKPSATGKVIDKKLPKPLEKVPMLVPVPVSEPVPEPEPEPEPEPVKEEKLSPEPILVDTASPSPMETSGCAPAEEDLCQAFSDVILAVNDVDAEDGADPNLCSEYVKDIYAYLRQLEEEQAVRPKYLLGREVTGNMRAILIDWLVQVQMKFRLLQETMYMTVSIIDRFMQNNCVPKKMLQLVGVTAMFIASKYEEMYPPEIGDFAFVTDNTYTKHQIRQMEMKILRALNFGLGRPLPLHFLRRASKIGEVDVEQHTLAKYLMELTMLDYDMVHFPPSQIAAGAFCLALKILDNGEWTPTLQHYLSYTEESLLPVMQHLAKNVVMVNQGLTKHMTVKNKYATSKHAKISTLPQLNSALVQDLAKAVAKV
How it was run: (§3)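 LANCE Ultra TR-FRET: ULight-MBP peptide (68 nM) with ATP at Km, […], 60 min at 23° C. EDTA plus Eu-anti-phospho-MBP added, another 60 min, then 665/615 nm emission read. Compounds tested as 8-dose 4-fold DMSO dilutions.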

[5] = tested on: MOLT-4; test: Cellular MOLT-4 viability assay (CellTiter-Glo, 72 hours); format: cell-based; conditions: Homo sapiens, MOLT4 viability assay
How it was run: as §1

[6] = molecular target: T2, CDK5/p25 (Homo sapiens, UniProt Q00535); test: Enzymatic assay for CDK5 (FRET based LANCE Ultra kinase assay); format: biochemical
T2 construct: purchased Invitrogen PR8543B
T2 sequence (Q00535 whole entry): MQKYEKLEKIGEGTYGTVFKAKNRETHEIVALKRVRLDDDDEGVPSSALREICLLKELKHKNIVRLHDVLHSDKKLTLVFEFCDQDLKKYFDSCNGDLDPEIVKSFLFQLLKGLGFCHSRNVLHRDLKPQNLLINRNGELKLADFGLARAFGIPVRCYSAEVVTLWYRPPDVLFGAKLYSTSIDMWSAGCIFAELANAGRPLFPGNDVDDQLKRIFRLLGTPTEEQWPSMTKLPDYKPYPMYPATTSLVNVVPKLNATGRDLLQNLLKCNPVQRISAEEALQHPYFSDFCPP
T2 sequence (Q15078 99-307 partner limits assumed): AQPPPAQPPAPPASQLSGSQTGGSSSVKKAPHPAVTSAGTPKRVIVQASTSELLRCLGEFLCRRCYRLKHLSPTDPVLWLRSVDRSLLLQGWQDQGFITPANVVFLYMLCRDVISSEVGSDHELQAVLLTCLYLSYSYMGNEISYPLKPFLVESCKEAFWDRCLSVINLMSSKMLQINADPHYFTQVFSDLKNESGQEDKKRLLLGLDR
How it was run: as §3

[7] = molecular target: T3, CDK2/Cyclin A (Homo sapiens, UniProt P24941); test: Enzymatic assay for CDK2 (FRET based LANCE Ultra kinase assay); format: biochemical
T3 construct: purchased Invitrogen PV6290
How it was run: as §3

[8] = tested on: RPMI-8226; test: Cellular RPMI-8226 viability assay (CellTiter-Glo, 72 hours); format: cell-based; conditions: Homo sapiens
How it was run: as §1

[9] = molecular target: T4, CDK7/Cyclin H/MNAT1 (Homo sapiens, UniProt P50613); test: Enzymatic assay for CDK7 (FRET based LANCE Ultra kinase assay); format: biochemical
T4 construct: purchased Invitrogen PR6749B
T4 sequence (P50613 whole entry): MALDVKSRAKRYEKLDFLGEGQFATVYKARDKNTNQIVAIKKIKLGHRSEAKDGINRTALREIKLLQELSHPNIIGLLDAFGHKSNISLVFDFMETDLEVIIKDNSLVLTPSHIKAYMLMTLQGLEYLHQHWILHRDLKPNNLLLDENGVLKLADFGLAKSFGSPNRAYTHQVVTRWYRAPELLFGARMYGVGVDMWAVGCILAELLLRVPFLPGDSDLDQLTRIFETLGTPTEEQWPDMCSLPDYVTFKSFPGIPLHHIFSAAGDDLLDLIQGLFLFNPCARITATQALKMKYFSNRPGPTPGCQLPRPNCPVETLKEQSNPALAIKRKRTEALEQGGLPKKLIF
T4 sequence (P51946 whole entry partner): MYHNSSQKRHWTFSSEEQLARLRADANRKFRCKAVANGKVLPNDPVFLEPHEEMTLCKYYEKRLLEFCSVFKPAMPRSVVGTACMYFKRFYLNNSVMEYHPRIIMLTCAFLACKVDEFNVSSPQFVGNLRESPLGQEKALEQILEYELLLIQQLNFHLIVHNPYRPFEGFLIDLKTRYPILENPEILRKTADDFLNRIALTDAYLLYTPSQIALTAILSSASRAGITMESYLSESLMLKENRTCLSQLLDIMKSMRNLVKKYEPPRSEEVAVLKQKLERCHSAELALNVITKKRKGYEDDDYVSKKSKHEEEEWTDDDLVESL
T4 sequence (P51948 whole entry partner): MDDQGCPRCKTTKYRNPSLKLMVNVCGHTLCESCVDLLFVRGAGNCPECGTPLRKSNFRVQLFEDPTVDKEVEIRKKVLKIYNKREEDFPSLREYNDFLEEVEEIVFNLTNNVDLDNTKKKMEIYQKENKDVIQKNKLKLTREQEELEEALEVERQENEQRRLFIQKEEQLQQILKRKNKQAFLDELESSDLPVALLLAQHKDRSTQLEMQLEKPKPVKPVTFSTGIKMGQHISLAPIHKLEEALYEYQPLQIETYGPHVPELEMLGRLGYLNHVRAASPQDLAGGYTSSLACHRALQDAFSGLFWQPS
How it was run: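 Inhibition was measured at Km ATP by time-resolved FRET between a Eu anti-phospho antibody and a phosphorylated ULight peptide. The enzyme was the purified CDK7/cyclin complex, and data were curve-fitted.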

[10] = tested on: H460; test: Cellular H460 viability assay (CellTiter-Glo, 72 hours); format: cell-based; conditions: Homo sapiens, NCI-H460
How it was run: as §1

[11] = tested on: OVCAR-3; test: Cellular OVCAR-3 viability assay (CellTiter-Glo, 72 hours); format: cell-based; conditions: Homo sapiens
Source text: Human T-cell acute lymphoblastic leukemia cell line, MOLT-4 (ATCC, Cat #CRL-1582), Human multiple myeloma cell line, RPMI-8226 (Invitrogen, Cat #22400-089) and MM.1S (ATCC, Cat #CRL-2974), NSCLC (Non-small cell lung cancer) cell line H460 (ATCC, Cat #HTB-177), Human colon colorectal carcinoma cell line HCT116 (ATCC, Cat #CCL-247), Human acute monocytic leukemia cell line MV4-11 (ATCC, Cat #CRL-9591), OVCAR-3 (ATCC, Cat #HTB-161) and A2780 (ECACC, Cat #93112519) were obtained from ATCC. Cells were grown in RPMI-1640 media (Invitrogen, Cat #22400-089) supplemented with 10% FBS (Invitrogen, Cat #10099141) and 1% penicillin/streptomycin (Invitrogen, Cat #15070063) and cultured at 37° C., 5% CO2 in a humidified chamber. All cell lines were routinely tested for mycoplasma.
The effect of the CDK7 inhibitor to inhibit the growth of target cancer cells was evaluated through the 72 hours time period of viability assay. Briefly, the candidate cell line ware plated in 96 well plate at the following density of cells respectively. 1×10^4 cells/well for MOLT-4, RPMI-8226, MV4-11 and MM.1S, 5×10^3 for H460, HCT116 and OVCAR-3 and IX 10^3 for A2780. After 24 hours, the cells were treated with various concentrations of the compound (ranging from 0.0015 uM to 10 uM). DMSO solvent without compound served as a control and final DMSO concentration less than 0.1%. After 72 hours of incubation at 37° C., 5% CO2 incubator, cells were analyzed for the viability using the CellTiter-Glo Luminescent Cell Viability Assay (Promega, Cat #G7570). All viability assays were performed in duplicate and Luminescence was read using an Envision (Perkin Elmer, USA). Data was analyzed using XLfit software.

[12] = tested on: A2780; test: Cellular A2780 viability assay (CellTiter-Glo, 72 hours); format: cell-based; conditions: Homo sapiens
How it was run: as §2

[13] = read-out: CDK1 enzymatic activity (IC50 range)
[14] = read-out: CDK5 enzymatic activity (IC50 range)
[15] = read-out: CDK2 enzymatic activity (IC50 range)
[16] = read-out: CDK7 enzymatic activity (IC50 range)

| Structure (SMILES) | IC50 [1] | IC50 [2] | IC50 [3] | IC50 [4, 13] | IC50 [5] | IC50 [6, 14] | IC50 [7, 15] | IC50 [8] | CDK1/CDK7: Selectivity of CDK7 inhibition over CDK1 inhibition ([9]; CDK7 over CDK1) | CDK2/CDK7: Selectivity of CDK7 inhibition over CDK2 inhibition ([9]; CDK7 over CDK2) | CDK5/CDK7: Selectivity of CDK7 inhibition over CDK5 inhibition ([9]; CDK7 over CDK5) | IC50 [9, 16] | IC50 [10] | further results |
| --- | --- | --- | --- | --- | --- | --- | --- | --- | --- | --- | --- | --- | --- | --- |
| CC(C)c1cnn2c(NCc3ccccc3-n3cc4cc(F)ccc4n3)nc(N3CCC(N)CC3)nc12 [Compound 108] | < 1000 nM | < 1000 nM | ≤ 1000 nM | 100 to 1000 nM | 1000 to 10000 nM | 100 to 1000 nM | 100 to 1000 nM | < 1000 nM | B (B=less than 200 fold, but greater than 20 fold) | B (B=less than 200 fold, but greater than 20 fold) | B (B=less than 200 fold, but greater than 20 fold) | < 100 nM | < 1000 nM | – |
| CC(C)c1cnn2c(NCc3c(Cl)cccc3-n3ccc(C(C)(C)O)n3)nc(Nc3cc[nH]c3)nc12 [Compound 277] | – | – | – | – | – | – | – | – | – | – | – | – | – | IC50 [11]: > 10000 nM; IC50 ([4]; read-out: CDK1 enzymatic activity (IC50 activity range)): > 1000 nM; IC50 [12]: > 10000 nM; IC50 ([6]; read-out: CDK5 enzymatic activity (IC50 activity range)): > 1000 nM; IC50 ([7]; read-out: CDK2 enzymatic activity (IC50 activity range)): > 1000 nM; CDK1/CDK7: Selectivity of CDK7 inhibition over CDK1 inhibition ([9]; CDK1/CDK7): C (C=less than 20 fold); CDK2/CDK7: Selectivity of CDK7 inhibition over CDK2 inhibition ([9]; CDK2/CDK7): C (C=less than 20 fold); CDK5/CDK7: Selectivity of CDK7 inhibition over CDK5 inhibition ([9]; CDK5/CDK7): C (C=less than 20 fold); IC50 ([9]; read-out: CDK7 enzymatic activity (IC50 activity range)): > 1000 nM |
| CC(C)c1cnn2c(NCc3ccccc3-c3nccc4c(NC(=O)CCCN(C)C)cccc34)nc(N3CCC(N)CC3)nc12 [Compound 90] | < 1000 nM | 1000 to 10000 nM | > 10000 nM | > 1000 nM | > 10000 nM | > 1000 nM | > 1000 nM | 1000 to 10000 nM | A (A=greater than 200 fold) | A (A=greater than 200 fold) | A (A=greater than 200 fold) | < 100 nM | 1000 to 10000 nM | – |
| CC(C)c1cnn2c(NCc3ccccc3-n3cc4ccc(C(F)(F)F)cc4n3)nc(N3CCC(N)CC3)nc12 [Compound 104] | < 1000 nM | < 1000 nM | ≤ 1000 nM | > 1000 nM | 1000 to 10000 nM | 100 to 1000 nM | > 1000 nM | < 1000 nM | A (A=greater than 200 fold) | A (A=greater than 200 fold) | B (B=less than 200 fold, but greater than 20 fold) | < 100 nM | < 1000 nM | – |
| CC(C)c1cnn2c(NCc3ccccc3OC3CCN(C)CC3)nc(N3CCC(N)CC3)nc12 [Compound 66] | < 1000 nM | < 1000 nM | ≤ 1000 nM | > 1000 nM | 1000 to 10000 nM | 100 to 1000 nM | > 1000 nM | 1000 to 10000 nM | A (A=greater than 200 fold) | A (A=greater than 200 fold) | A (A=greater than 200 fold) | < 100 nM | < 1000 nM | – |
| Cc1cccc(-n2cccn2)c1CNc1nc(N2CCC(N)CC2)nc2c(C(C)C)cnn12 [Compound 43] | < 1000 nM | < 1000 nM | 1000 to 10000 nM | > 1000 nM | 1000 to 10000 nM | > 1000 nM | > 1000 nM | 1000 to 10000 nM | A (A=greater than 200 fold) | A (A=greater than 200 fold) | A (A=greater than 200 fold) | < 100 nM | < 1000 nM | – |
| CC(C)c1cnn2c(NCc3ccccc3-c3cc4ccccc4[nH]3)nc(N3CCC(N)CC3)nc12 [Compound 102] | < 1000 nM | < 1000 nM | ≤ 1000 nM | 100 to 1000 nM | – | < 100 nM | 100 to 1000 nM | < 1000 nM | B (B=less than 200 fold, but greater than 20 fold) | B (B=less than 200 fold, but greater than 20 fold) | C (C=less than 20 fold) | < 100 nM | < 1000 nM | IC50 [12]: ≤ 1000 nM |
| CC(C)c1cnn2c(NCc3ccccc3-n3cccn3)nc(-c3cccc(C(=O)N4CCC(N)CC4)c3)nc12 [Compound 171] | < 1000 nM | < 1000 nM | ≤ 1000 nM | > 1000 nM | 1000 to 10000 nM | > 1000 nM | > 1000 nM | 1000 to 10000 nM | A (A=greater than 200 fold) | A (A=greater than 200 fold) | A (A=greater than 200 fold) | < 100 nM | < 1000 nM | – |
| CC(C)c1cnn2c(NCc3ccccc3-c3ccc4ccccc4n3)cc(N3CCC(N)CC3)nc12 [Compound 73] | < 1000 nM | < 1000 nM | ≤ 1000 nM | > 1000 nM | 1000 to 10000 nM | 100 to 1000 nM | > 1000 nM | 1000 to 10000 nM | A (A=greater than 200 fold) | A (A=greater than 200 fold) | B (B=less than 200 fold, but greater than 20 fold) | < 100 nM | < 1000 nM | – |
